Measurements taken from patent publication US5734052A (Merrell Pharmaceuticals Inc., priority 1995, dated 1998).

How the values were obtained:
adenosine A-2 receptors = biological target: T1, adenosine A-2 receptors (Rattus norvegicus, UniProt P30543); assay: Affinity for brain adenosine A-2 receptors ([3H]NECA competition, striatal membranes); type: binding; conditions: rat brain striatum membranes, 1 μM CHA in tube addition, 25° C., 60 minutes, read-out: A2 Ki
T1 construct: tissue Charles River; host or cells: striatal membranes of young male rats (C-D strain)
Method: Young male rats (C-D strain), obtained from Charles River, are killed by decapitation and the brain was removed. Membranes for ligand binding are isolated from rat brain striatum. The tissue is homogenized in 20 vol ice-cold 50 mM Tris-HCl buffer (pH 7.7) using a polytron (setting for 6 to 20 seconds). The homogenate is centrifuged at 50,000×g for 10 minutes at 4° C. The pellet is again homogenized in a polytron in 20 vol of buffer, and centrifuged as before. The pellet is finally resuspended in 40 vol of 50 mM Tris-HCl (pH 7.7) per gram of original wet weight of tissue.
Incubations are carried out at 25° C. for 60 minutes. Each tube is filtered through GF/B glass fiber filters using a vacuum. The filters are rinsed two times with 5 ml of the ice-cold buffer. […] The filters are counted by liquid scintillation spectrometry.
Specific binding of [3H]NECA is measured as the excess over blanks run in the presence of 100 μM 2-chloro-adenosine. Total membrane-bound radioactivity is about 2.5% of that added to the test tubes. […] Specific binding to membranes is about 50% of the total bound.

Adenosine A-1 receptor [1] = biological target: T2, Adenosine A-1 receptor (Rattus norvegicus, UniProt P25099)
T2 sequence (P25099 1-326): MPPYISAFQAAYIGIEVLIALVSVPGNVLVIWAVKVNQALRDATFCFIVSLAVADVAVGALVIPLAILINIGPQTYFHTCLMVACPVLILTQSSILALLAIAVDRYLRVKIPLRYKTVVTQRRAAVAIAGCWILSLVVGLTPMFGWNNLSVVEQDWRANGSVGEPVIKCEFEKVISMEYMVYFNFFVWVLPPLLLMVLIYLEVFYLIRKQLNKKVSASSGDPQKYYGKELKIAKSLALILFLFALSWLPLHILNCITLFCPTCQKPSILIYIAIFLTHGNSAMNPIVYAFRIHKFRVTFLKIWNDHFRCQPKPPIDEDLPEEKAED

Adenosine A-1 receptor [2] = biological target: T2, Adenosine A-1 receptor; assay: Affinity for brain adenosine A-1 receptor binding sites ([3H]cyclohexyladenosine competition); conditions: ratio of A2 Ki to A1 Ki
adenosine receptor = conditions: in vivo; cited from earlier work
A-1 receptors = conditions: in vitro, A-1 vs A-2; cited from earlier work

T1 sequence (P30543 whole entry): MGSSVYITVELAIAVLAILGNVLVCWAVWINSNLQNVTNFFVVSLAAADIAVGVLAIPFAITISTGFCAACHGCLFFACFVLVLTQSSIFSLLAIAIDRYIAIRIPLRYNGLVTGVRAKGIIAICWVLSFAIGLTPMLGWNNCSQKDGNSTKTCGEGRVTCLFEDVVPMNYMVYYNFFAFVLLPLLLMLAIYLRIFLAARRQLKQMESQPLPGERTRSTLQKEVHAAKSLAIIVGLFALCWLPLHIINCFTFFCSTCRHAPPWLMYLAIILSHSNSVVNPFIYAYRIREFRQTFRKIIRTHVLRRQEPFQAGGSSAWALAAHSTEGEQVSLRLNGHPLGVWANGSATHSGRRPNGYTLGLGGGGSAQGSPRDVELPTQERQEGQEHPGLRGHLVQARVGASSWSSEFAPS

CCCn1c(=O)c2nc(CC(C)c3ccccc3)[nH]c2n(CCC)c1=O (stereo not shown) [8-(2-Phenylpropyl)-1,3-dipropyl-3,9-dihydropurine-2,6-dione]
Ki (adenosine A-2 receptors): 1.74 µM
Ki (Adenosine A-1 receptor [1]): 0.0943 µM
A2/A1 (Adenosine A-1 receptor [2]): 18

CCCn1c(=O)c2[nH]c(-c3ccc(OCC(=O)NCCN)cc3)nc2n(CCC)c1=O [XAC]
potency in antagonizing effects of adenosine analogs on heart rate vs blood pressure (adenosine receptor): much more potent in antagonizing the effects of adenosine analogs on heart rate than on blood pressure

CCCn1c(=O)c2nc(C3CCc4ccccc4C3)[nH]c2n(CCC)c1=O (stereo not shown) [1,3-Dipropyl-8-(1,2,3,4-tetrahydronaphthalen-2-yl)-3,9-dihydropurine-2,6-dione]
Ki (adenosine A-2 receptors): 10.3 µM

CCCn1c(=O)c2[nH]c([C@@H]3CCC[C@H]3c3ccccc3)nc2n(CCC)c1=O (relative stereo) [8-(trans-2-Phenylcyclopentyl)-1,3-dipropyl-3,9-dihydropurine-2,6-dione]
Ki (adenosine A-2 receptors): 2.72 µM

CCCn1c(=O)c2[nH]c(-c3ccc(OCC(=O)O)cc3)nc2n(CCC)c1=O [XCC]
adenosine receptor selectivity (A-1 receptors): adenosine receptor nonselective
